Common to all, as to test: endpoint assay, LC-MS quantification of product
Series [1] addresses T1, AtaPT (Aspergillus terreus, UniProt A0A1B0UHJ4, E91D).
T1 construct: gene PT; N-terminal His6 tag (pETM11), codon-optimised synthetic gene, E. coli ArcticExpress (DE3), purified
In kind it is biochemical. Conditions: read-out: Apparent Km; co-substrate GPP 1 mM; 1 μM enzyme; 25 mM Tris pH 8, 150 mM NaCl, 5% glycerol; 25°C; approximate constant. The text has this:
(§1) endpoint assay, LC-MS quantification of product on AtaPT

Series [2] has as its target T2, AtaPT (Aspergillus terreus, UniProt A0A1B0UHJ4, E91Q).
T2 construct: gene PT; N-terminal His6 tag (pETM11), codon-optimised synthetic gene, E. coli ArcticExpress (DE3), purified
The class given is biochemical. As to conditions: read-out: Apparent Km; co-substrate GPP 1 mM; 1 μM enzyme; 25 mM Tris pH 8, 150 mM NaCl, 5% glycerol; 25°C; approximate constant.
Excerpt: as §1

Series [3] concerns the target T3, AtaPT (Aspergillus terreus, UniProt A0A1B0UHJ4, E91A).
T3 construct: gene PT; N-terminal His6 tag (pETM11), codon-optimised synthetic gene, E. coli ArcticExpress (DE3), purified
In kind it is biochemical. Conditions: read-out: Apparent Km; co-substrate GPP 1 mM; 1 μM enzyme; 25 mM Tris pH 8, 150 mM NaCl, 5% glycerol; 25°C; approximate constant.
Excerpt: as §1

The test system of series [4] is CCCCCc1cc(O)cc(O)c1C(=O)O. In kind it is biochemical, Aspergillus terreus. Conditions: co-substrate GPP 1 mM, 10 μM enzyme, 25 mM Tris pH 8, 150 mM NaCl, 5% glycerol, 25°C, approximate constant (high enzyme concentration).
Excerpt: as §1

This note sets out measurements from publication PMC10263468, “Biosynthesis of cannabigerol and cannabigerolic acid: the gateways to further cannabinoid production” (Synthetic Biology, 2023).

The Km is the concentration of substrate that gives half-maximal velocity. As a reminder, the kcat is the maximal rate divided by the concentration of active sites.

T1 sequence (A0A1B0UHJ4 whole entry E91D): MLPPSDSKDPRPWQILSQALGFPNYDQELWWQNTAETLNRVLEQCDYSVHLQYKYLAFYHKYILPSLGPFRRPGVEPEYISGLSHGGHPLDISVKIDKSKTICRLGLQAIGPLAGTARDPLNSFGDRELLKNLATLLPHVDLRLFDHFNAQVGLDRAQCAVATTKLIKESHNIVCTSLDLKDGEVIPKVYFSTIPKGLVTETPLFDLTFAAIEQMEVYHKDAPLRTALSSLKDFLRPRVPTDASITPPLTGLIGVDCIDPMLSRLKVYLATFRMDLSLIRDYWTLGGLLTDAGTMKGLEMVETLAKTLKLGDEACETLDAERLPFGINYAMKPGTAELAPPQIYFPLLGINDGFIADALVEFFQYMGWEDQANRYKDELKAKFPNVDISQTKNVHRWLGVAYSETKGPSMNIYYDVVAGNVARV
T3 sequence (A0A1B0UHJ4 whole entry E91A): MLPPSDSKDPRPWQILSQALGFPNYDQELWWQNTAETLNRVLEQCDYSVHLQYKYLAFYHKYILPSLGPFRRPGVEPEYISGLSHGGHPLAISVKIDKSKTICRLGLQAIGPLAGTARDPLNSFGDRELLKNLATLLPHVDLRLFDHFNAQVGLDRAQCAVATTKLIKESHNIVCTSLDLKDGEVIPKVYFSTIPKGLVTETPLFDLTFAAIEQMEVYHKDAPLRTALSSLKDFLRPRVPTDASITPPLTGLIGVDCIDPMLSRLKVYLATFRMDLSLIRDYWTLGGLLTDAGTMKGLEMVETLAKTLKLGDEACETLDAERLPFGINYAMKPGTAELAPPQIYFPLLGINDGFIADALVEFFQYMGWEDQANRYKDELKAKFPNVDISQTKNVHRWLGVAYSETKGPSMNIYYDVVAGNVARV
T2 sequence (A0A1B0UHJ4 whole entry E91Q): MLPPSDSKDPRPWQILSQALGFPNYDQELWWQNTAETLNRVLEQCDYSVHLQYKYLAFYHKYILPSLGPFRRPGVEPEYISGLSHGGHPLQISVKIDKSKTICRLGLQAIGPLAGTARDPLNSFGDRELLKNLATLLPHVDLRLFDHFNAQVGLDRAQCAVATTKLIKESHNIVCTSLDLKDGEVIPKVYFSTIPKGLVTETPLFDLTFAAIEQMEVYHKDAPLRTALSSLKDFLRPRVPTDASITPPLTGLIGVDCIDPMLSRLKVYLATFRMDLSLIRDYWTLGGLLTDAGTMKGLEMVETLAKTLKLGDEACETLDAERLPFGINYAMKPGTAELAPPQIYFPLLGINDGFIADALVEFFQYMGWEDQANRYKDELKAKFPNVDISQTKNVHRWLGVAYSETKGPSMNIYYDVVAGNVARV

Turning to `CCCCCc1cc(O)cc(O)c1C(=O)O` [OA, olivetolic acid], the Km in series [1] was found to be 266 ± 44 µM; in series [2], 94 ± 32 µM; in series [3], 332 ± 96 µM.

For the compound AtaPT (Aspergillus terreus), in series [4], the Km was 1083 ± 126 µM and the kcat is 0.000147 ± 5e-06 s⁻¹.
